Measurements: ChEMBL document CHEMBL1128081, “Synthesis of dibenzo[a,d]cycloheptanes as cytokine biosynthesis inhibitors” (Bioorg Med Chem Lett, 1995)

Columns and labels:
Assay type in all cases: functional
Mus musculus [1] = assay: Ability to inhibit the accumulation of cytokine interleukin-6 (IL-6) in the serum of […] parvum-primed mice by po administration
Mus musculus [2] = assay: Ability to inhibit the accumulation of gamma-interferon (gamma-IFN) in the serum of […] parvum-primed mice by po administration
Mus musculus [3] = assay: Ability to inhibit the accumulation of inflammatory cytokine interleukin-1 alpha (IL-1 alpha) in the serum of […] parvum-primed mice by po administration
Mus musculus [4] = assay: Ability to inhibit the accumulation of tumor necrosis factor-alpha (TNF-alpha) in the serum of […] parvum-primed mice by po administration
Mus musculus [5] = species on record: Mus musculus; assay: In vitro inhibitory activity was measured for the release of tumor necrosis factor-alpha (TNF-alpha) from a murine monocytic cell line

Structure (SMILES)	ED50 (Mus musculus [1]) [mg/kg]	ED50 (Mus musculus [2]) [mg/kg]	ED50 (Mus musculus [3]) [mg/kg]	ED50 (Mus musculus [4]) [mg/kg]	IC50 (Mus musculus [5]) [nM]
CCCC1(CCCN(C)C)c2ccccc2CCc2ccccc21	15.8	5.9	8.7	> 25	
CCCCCCC1(CCN(C)C)c2ccccc2CCc2ccccc21	> 25	> 25	> 25	> 25	
CCOC1(CCN(C)C)c2ccccc2C=Cc2ccccc21	> 25	13.2	> 6.25	> 25	
CCOCC1(CCNC)c2ccccc2CCc2ccccc21	> 25	> 25	> 25	> 25	
CCOC1(CCN(C)C(C)=O)c2ccccc2CCc2ccccc21	> 25	> 25	> 25	> 25	
CCCC1(CCN(C)C)c2ccccc2CCc2ccccc21	23.3	10.8	6.25		
CCOC1(CCN2CCCC2)c2ccccc2CCc2ccccc21		11.3	11.1	16.1	
CCOCC1(CCN(C)C)c2ccccc2CCc2ccccc21	> 25	13.5	18.1	19.6	
CCOC1(CCN(C)C)c2ccccc2CCc2cccnc21 (configuration not stated)	> 25	> 25	> 25	> 25	
CN(C)CCC1(O)c2ccccc2CCc2ccccc21	> 25	> 25	> 25	> 25	
CCOC1(CCN(C)C)c2ccccc2CCc2ccccc21	8	1.3	2.4	17.6	1700
CCCC1(CN(C)C)c2ccccc2CCc2ccccc21	25	3.9	> 25	> 25	
